Test results taken from ChEMBL document CHEMBL1201862, “PubChem BioAssay data set” (2004).
The source made the active and inactive calls.

Key:
Paired box protein Pax-8 = Paired box protein Pax-8 (Homo sapiens, UniProt Q06710); experiment: PAX8 transcriptional activity inhibition in RMG-I – RMG-I cells, luciferase, cherry-pick, dose response (AID 687027); format: functional, cell-based;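 also: luciferase reporter driven by Pax8 target thyroperoxidase promoter measured by SteadyGlo luminescence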
[1] = inhibitors acting on PAX2 in cells – cell-based, plate reader, dry powder samples, selectivity assay for PAX8 inhibitor project, dose response (AID 743048); format: functional;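 also: HEK293 cells carrying a WT1 promoter luciferase reporter driven by expressed Pax2; potency is for inhibition of Pax2 driven reporter signal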
[2] = COV362 cell viability loss – plate reader, dry powder, SA12, cytotoxicity control for PAX8 inhibitor project, dose response (AID 743144); format: functional, cell-based
[3] = toxicity toward immortalized ovarian surface epithelium – cell-based, plate reader, dry powder samples, cytotoxicity control for PAX8 inhibitor project, dose response (AID 743045); format: functional
[4] = OVCAR-3 cell viability loss – plate reader, dry powder samples, PAX8 inhibitor project, dose response (AID 743044); format: functional, cell-based
[5] = PAX5 cellular inhibition readout – cell-based, plate reader, dry powder samples, selectivity assay for PAX8 inhibitor project, dose response (AID 743047); format: functional;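 also: HEK293 cells carrying a Pax5 driven CD19 promoter luciferase reporter; potency of inhibitors that lower reporter luminescence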
[6] = IGROV1 cell killing – plate reader, dry powder samples, PAX8 inhibitor project, dose response (AID 743043); format: functional, cell-based; details: IGROV-1
[7] = OVCAR4 cell viability loss – plate reader, dry powder, SA11, cytotoxicity control for PAX8 inhibitor project, dose response (AID 743150); format: functional, cell-based; details: OVCAR-4
[8] = COV434 cell viability loss – plate reader, dry powder, SA7, cytotoxicity control for PAX8 inhibitor project, dose response (AID 743145); format: functional, cell-based
[9] = OV-90 cell viability loss – plate reader, dry powder, SA8, PAX8 inhibitor project, dose response (AID 743149); format: functional, cell-based
[10] = PAX8-dependent cell viability loss – plate reader, dry powder, dose response (AID 743049); format: functional, cell-based
Hexokinase-1 = target: T1, Hexokinase-1 (Homo sapiens, UniProt P19367); experiment: SAR analysis of small molecule inhibitors of hexokinase domain containing I (HKDC1) in the hexokinase 1 selectivity assay. [Related pubchem assays (depositor defined):AID493160, AID493190]; format: functional
T1 sequence (P19367 whole entry): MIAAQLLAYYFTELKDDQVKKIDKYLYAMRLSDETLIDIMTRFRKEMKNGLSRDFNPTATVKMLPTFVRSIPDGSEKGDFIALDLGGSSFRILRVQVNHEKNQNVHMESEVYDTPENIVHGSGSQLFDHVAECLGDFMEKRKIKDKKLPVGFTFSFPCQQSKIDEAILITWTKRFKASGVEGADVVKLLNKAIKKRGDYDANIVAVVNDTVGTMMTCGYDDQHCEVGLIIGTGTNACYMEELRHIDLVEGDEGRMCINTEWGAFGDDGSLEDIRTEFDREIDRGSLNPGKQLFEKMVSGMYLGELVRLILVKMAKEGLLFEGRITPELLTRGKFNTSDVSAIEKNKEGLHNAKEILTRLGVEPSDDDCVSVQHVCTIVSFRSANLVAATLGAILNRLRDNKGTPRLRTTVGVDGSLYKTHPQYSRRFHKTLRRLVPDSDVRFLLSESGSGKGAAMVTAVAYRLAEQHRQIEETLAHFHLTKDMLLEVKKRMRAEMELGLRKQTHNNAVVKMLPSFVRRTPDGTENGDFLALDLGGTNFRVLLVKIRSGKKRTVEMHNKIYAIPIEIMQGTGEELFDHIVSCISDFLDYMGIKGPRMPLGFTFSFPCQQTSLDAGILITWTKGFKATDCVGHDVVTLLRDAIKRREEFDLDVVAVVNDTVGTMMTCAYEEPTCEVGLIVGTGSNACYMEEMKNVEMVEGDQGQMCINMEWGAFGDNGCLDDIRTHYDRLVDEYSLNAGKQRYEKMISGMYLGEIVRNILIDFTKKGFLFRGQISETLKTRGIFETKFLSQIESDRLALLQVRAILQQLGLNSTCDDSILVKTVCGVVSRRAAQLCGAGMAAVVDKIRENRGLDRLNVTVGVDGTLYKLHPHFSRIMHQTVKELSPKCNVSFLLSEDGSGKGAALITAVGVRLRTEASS

Hexokinase HKDC1 = target: T2, Hexokinase HKDC1 (Homo sapiens, UniProt Q2TB90); experiment: SAR analysis of small molecule inhibitors of hexokinase domain containing I (HKDC1). [Related pubchem assays (depositor defined):AID493160, AID493190]; format: functional
T2 sequence (Q2TB90 whole entry): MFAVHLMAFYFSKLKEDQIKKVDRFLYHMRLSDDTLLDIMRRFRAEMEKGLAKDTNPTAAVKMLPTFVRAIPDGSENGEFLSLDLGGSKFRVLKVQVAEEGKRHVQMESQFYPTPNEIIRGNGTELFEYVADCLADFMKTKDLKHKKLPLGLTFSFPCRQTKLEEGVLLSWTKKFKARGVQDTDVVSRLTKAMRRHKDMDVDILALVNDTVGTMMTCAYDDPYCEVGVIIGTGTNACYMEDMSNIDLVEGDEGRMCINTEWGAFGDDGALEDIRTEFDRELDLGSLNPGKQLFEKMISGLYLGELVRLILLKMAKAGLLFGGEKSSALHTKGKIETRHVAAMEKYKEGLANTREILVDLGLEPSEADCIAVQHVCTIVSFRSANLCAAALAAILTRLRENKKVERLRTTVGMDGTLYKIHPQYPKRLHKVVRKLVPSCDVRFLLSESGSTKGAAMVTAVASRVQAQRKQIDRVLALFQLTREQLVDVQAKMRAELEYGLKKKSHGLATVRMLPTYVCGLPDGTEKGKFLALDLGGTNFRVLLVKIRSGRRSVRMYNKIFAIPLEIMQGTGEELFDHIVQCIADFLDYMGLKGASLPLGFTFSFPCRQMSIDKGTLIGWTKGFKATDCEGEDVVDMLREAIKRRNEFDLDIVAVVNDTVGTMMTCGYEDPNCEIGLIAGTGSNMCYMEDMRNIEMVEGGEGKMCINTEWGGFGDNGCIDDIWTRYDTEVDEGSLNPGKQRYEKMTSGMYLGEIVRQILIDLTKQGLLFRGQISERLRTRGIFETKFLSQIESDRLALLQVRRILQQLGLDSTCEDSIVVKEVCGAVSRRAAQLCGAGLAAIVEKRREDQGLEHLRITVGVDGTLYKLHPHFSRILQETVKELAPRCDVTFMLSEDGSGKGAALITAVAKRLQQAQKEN

[11] = viability of BHK-21 cells – cell-based, secondary screen, cytotoxicity control for flavivirus guanylyltransferase probe project (AID 624078); format: functional
[12] = Late-stage results from the probe development effort to identify antagonists of arginine vasopressin receptor 1a (AVPR1a): fluorescence-based cell-based dose response AVPR1a inhibition assay.; format: functional
Vasopressin V1b receptor = Vasopressin V1b receptor (Homo sapiens, UniProt P47901); experiment: Late-stage results from the probe development effort to identify antagonists of arginine vasopressin receptor 1a (AVPR1a): fluorescence-based cell-based dose response AVPR1b inhibition counterscreen assay.; format: functional
Sequence of Vasopressin V1b receptor (P47901 whole entry): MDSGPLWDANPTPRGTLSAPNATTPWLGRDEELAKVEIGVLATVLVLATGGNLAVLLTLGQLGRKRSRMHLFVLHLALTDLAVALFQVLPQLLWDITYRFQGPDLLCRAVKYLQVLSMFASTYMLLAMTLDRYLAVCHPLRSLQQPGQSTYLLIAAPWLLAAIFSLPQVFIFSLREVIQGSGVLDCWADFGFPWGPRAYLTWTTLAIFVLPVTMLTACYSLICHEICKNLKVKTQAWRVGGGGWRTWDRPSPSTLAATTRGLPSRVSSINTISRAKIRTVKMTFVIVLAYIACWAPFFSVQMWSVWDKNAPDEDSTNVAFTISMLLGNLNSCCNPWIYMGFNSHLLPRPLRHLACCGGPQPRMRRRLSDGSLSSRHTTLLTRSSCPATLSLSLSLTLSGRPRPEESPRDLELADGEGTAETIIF

Vasopressin V2 receptor = Vasopressin V2 receptor (Homo sapiens, UniProt P30518); experiment: Late-stage results from the probe development effort to identify antagonists of arginine vasopressin receptor 1a (AVPR1a): fluorescence-based cell-based dose response AVPR2 inhibition counterscreen assay.; format: functional
Sequence of Vasopressin V2 receptor (P30518 whole entry): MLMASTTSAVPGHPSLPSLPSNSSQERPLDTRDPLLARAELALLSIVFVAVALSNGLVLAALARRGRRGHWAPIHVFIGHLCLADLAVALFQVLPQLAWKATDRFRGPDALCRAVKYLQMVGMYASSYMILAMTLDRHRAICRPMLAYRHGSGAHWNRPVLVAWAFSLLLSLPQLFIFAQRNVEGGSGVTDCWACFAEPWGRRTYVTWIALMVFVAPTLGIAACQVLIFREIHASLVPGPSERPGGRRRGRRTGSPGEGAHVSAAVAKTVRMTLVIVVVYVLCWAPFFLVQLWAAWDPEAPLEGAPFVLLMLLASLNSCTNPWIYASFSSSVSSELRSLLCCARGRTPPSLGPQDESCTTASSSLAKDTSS

[13] = Late-stage results from the probe development effort to identify antagonists of arginine vasopressin receptor 1a (AVPR1a): fluorescence-based cell-based dose response OXTR inhibition counterscreen assay.; format: functional
[14] = target: NAD-dependent protein deacylase sirtuin-5, mitochondrial (Homo sapiens, UniProt Q9NXA8); experiment: sirtuin-5 deacylation blockers, concentration series – biochemical, fluorescence imaging, cherry-pick, set 5, dose response (AID 720591);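 also: desuccinylation of succinyl peptide AMC substrate read as fluorescence after trypsin release; potency of inhibitors that lower fluorescence and may act on trypsin instead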
Sequence of NAD-dependent protein deacylase sirtuin-5, mitochondrial (Q9NXA8 whole entry): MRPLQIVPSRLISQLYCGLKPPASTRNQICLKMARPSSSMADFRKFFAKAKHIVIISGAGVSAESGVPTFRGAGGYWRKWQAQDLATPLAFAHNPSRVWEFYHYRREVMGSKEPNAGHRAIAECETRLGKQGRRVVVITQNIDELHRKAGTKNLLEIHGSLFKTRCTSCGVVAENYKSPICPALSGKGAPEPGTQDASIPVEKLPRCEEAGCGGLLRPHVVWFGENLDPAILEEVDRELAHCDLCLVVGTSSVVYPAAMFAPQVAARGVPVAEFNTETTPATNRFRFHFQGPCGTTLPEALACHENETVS

[15] = target: Potassium channel subfamily K member 9 (Homo sapiens, UniProt Q9NPC2); experiment: KCNK9 flux blockade, concentration-response – cell-based, FluxOR thallium flux, selectivity assay for TASK1 inhibitor project, SAR follow-up (AID 652211); format: functional;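 also: potency is for inhibitors of the channel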
Sequence of Potassium channel subfamily K member 9 (Q9NPC2 whole entry): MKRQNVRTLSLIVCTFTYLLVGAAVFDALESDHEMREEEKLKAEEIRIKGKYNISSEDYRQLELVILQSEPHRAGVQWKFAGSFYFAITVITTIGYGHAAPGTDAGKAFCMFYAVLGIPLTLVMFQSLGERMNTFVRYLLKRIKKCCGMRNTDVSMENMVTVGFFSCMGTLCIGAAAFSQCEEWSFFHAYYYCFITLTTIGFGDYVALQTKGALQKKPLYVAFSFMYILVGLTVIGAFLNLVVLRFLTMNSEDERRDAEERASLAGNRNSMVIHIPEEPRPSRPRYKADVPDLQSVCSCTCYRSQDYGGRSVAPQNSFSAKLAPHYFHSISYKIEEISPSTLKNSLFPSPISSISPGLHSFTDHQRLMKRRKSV

[16] = target: Potassium channel subfamily K member 3 (Homo sapiens, UniProt O14649); experiment: inhibition of human KCNK3 channel flux – CHO cells, FluxOR thallium flux, SAR follow-up (AID 652212); format: functional
Sequence of Potassium channel subfamily K member 3 (O14649 whole entry): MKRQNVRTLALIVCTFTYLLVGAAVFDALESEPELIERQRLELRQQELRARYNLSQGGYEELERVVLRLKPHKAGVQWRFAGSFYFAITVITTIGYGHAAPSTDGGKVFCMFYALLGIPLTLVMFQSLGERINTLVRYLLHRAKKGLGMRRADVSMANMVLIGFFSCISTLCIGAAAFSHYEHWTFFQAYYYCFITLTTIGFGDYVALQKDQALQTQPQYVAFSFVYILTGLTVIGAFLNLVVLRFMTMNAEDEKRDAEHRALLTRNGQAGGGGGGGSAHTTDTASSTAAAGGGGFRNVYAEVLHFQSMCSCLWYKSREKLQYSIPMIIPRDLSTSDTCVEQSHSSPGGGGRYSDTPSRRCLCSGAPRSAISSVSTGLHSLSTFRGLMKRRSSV

Sequence of Paired box protein Pax-8 (Q06710 whole entry): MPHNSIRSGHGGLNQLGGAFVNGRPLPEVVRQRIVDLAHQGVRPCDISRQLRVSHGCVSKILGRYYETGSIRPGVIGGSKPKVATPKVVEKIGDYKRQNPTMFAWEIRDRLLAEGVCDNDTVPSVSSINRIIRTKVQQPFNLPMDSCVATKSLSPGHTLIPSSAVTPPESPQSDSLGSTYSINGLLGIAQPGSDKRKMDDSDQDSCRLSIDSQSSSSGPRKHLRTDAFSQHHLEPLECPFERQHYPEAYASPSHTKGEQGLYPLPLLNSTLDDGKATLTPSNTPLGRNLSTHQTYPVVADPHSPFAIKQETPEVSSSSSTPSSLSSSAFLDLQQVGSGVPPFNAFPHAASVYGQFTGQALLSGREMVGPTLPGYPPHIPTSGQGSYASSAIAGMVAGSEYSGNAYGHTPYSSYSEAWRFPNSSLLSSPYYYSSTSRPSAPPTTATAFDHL

N#C[C@H]1[C@@H](c2ccc(C#Cc3ccc(F)cc3)cc2)[C@H](CO)N1C(=O)Nc1ccc(F)cc1
active: AC50 (Paired box protein Pax-8) 12.3 µM | AC50 [1] 14.1 µM | AC50 [2] 19.6 µM | AC50 [3] 44.7 µM | AC50 [4] 23.5 µM | AC50 [5] 14 µM | AC50 [6] 30.1 µM | AC50 [7] 19.2 µM | AC50 [8] 20.5 µM | AC50 [9] 21.1 µM | AC50 [10] 13.2 µM

Cc1ccc(S(=O)(=O)Nc2cc(SCC(=O)O)c(O)c3ccccc23)cc1
inactive: IC50 (Hexokinase-1) 50.6 µM
active: IC50 (Hexokinase HKDC1) 5.44 µM | CC50 [11] 9.31 µM

O=C(C1CCN(c2ccccn2)CC1)N(CC1CC1)c1ccc(Cl)cc1
inactive: IC50 (Vasopressin V1b receptor) 18.9 µM | IC50 (Vasopressin V2 receptor) 28.3 µM
active: IC50 [12] 0.0288 µM | IC50 [13] 9.6 µM

O=C(O)CCNc1nc(-c2ccccc2)nc2ccccc12
active: AC50 [14] 5.41 µM

Cc1cccc(C(=O)Nc2cccc(NC(=O)c3ccccc3OCC(C)C)c2)c1
active: IC50 [15] 3.39 µM | IC50 [16] 0.206 µM
